Results published in patent publication US20210236840A1, “COMBINED SONODYNAMIC AND PHOTODYNAMIC THERAPY TO TREAT DEEP SEATED CANCER AND OTHER HYPERPOLIFERATIVE DISEASE AND ULTRASOUND AND LIGHT TRIGGERED RELEASE OF NEAR INFRARED PHOTOSENSITIZERS AND CHEMOTHERAPY AGENTS FROM POLYACRLAMIDE BASED NANOPARTICLES” (Photolitec, LLC, priority 2020, published 2021).

Tests used:
[1] = system: U87 Glioma xenografts; test: In vivo PDT and PDT-SDT combination response; details: PDT alone; SCID mice bearing U87 Glioma xenografts
[2] = system: U87 tumors; test: Long-term tumor cure by Photobac-PDT; format: in vivo, SCID mice; details: laser light at 787 nm; for CR: 60 days
Procedure: Analysis of anticancer efficacy of Photobac was injected in tumor-bearing mice and treated with the laser light at 787 nm. Tumor cure was monitored for 60 days post-laser treatment. […] Photobac is being developed for the treatment of glioblastoma by Photolitec, LLC (a spin-off of RPCI) has received an ORPHAN DRUG STATUS from FDA.
Long-term tumor cure by Photobac-PDT on treating nude mice (female) bearing U87 tumors (shoulder) at variable drug doses. The tumors were exposed with light (787 nm, 135 J/cm^2, 75 mW/cm^2) at 24 h post injection. Comparative long-term cure of Photobac-PDT treatment in both and female SCID mice bearing U87 tumors (shoulder) under similar treatment parameters (drug dose: 0.75 μmol/kg; light dose: 135 J/cm^2, 75 mW/cm^2.

[3] = system: Colon 26 tumors and U87 tumors; test: Photobac-PDT vascular shutdown, CD31 staining of tumor sections; format: in vivo, BALB/C mice; nude mice; details: 787 nm, 135 J/cm2, 75 mW/cm2 at 24 h post-injection; 0.25 μmol/kg (Colon 26) or 0.75 μmol/kg (U87)

Structure (SMILES) | complete response [1] [%] | mice tumor free up to 60 days ([2]; female SCID mice) | CR ([2]; female SCID mice) [%] | mice tumor free up to 60 days ([2]; male mice) | CR ([2]; male mice) [%] | vascular effect of PDT [3]
CCCCCCOC(C)c1c(C)c2cc3nc(c4c5[nH]c(cc6nc(cc1[nH]2)C(C)=C6CC)c(C)c5C(=O)C4)[C@@H](CCC(=O)O)[C@@H]3C (stereo partly drawn) [HPPH, 2-(1-Hexyloxyethyl)-2-devinyl pyropheophorbide-a] | 37 | – | – | – | – | –
CCCCOC(C)C1=C(C)c2cc3nc(c4c5[nH]c(cc6[nH]c(cc1n2)[C@H](C)[C@H]6CC)c(C)c5C(=O)N(CCCC)C4=O)[C@@H](CCC(=O)OC)[C@@H]3C (stereo partly drawn) [Photobac, bacteriopurpurinimide] | – | 4/5 | 80 | 4/7 | 60 | causes vascular shutdown
